In patent US11497752B2, “Compounds and uses thereof” (Foghorn Therapeutics Inc., priority 2018, dated 2022):

Assays:
[1] = target: BRM (Homo sapiens, UniProt P51531); assay: ATPase catalytic activity of BRM (ADP-Glo in vitro biochemical assay)
[2] = target: BRG-1 (Homo sapiens, UniProt P51532); assay: ATPase catalytic activity of BRG-1 (ADP-Glo in vitro biochemical assay)
Chain of BRG-1 (P51532 whole entry): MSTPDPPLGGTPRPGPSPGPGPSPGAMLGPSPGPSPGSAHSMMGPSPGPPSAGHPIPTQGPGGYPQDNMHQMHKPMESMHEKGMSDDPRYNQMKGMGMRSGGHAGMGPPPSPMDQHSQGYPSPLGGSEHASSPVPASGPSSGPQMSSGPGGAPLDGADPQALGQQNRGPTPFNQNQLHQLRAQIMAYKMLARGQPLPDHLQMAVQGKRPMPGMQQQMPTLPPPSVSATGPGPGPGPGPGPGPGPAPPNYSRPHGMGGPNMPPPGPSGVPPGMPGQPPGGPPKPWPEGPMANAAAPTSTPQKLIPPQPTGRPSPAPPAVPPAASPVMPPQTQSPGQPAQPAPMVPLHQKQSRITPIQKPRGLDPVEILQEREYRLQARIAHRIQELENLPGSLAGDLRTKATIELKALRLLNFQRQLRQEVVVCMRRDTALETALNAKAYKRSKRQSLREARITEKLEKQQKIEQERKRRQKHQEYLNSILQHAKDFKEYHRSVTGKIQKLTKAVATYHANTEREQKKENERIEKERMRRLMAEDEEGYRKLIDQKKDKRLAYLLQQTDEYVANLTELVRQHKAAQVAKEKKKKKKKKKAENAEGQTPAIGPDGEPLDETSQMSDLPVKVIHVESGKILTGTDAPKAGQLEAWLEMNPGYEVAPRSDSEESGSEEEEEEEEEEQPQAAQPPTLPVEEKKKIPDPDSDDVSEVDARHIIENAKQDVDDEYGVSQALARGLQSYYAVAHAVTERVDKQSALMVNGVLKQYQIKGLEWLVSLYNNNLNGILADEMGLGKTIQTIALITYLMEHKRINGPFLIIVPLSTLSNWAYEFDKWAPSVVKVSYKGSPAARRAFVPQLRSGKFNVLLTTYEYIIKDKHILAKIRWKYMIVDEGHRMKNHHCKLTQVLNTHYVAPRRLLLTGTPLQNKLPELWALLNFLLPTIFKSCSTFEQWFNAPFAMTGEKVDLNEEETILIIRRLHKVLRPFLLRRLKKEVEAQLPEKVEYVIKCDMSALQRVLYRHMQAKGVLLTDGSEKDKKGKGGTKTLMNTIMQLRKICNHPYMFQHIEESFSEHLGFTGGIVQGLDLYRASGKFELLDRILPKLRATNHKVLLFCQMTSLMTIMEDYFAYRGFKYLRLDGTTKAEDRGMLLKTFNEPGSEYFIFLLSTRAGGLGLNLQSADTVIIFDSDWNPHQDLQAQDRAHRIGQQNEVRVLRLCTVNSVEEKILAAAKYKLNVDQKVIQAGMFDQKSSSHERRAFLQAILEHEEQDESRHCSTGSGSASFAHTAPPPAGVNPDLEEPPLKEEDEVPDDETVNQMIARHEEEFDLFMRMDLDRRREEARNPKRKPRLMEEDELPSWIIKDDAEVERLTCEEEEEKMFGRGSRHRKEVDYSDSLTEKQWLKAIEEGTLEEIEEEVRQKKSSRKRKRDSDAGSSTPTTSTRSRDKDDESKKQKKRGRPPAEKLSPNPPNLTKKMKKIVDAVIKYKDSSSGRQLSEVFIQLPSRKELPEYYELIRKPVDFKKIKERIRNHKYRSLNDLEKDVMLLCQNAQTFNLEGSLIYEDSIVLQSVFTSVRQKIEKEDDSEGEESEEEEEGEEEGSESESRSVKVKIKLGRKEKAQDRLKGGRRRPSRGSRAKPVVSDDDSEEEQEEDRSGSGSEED

Chain of BRM (P51531 whole entry): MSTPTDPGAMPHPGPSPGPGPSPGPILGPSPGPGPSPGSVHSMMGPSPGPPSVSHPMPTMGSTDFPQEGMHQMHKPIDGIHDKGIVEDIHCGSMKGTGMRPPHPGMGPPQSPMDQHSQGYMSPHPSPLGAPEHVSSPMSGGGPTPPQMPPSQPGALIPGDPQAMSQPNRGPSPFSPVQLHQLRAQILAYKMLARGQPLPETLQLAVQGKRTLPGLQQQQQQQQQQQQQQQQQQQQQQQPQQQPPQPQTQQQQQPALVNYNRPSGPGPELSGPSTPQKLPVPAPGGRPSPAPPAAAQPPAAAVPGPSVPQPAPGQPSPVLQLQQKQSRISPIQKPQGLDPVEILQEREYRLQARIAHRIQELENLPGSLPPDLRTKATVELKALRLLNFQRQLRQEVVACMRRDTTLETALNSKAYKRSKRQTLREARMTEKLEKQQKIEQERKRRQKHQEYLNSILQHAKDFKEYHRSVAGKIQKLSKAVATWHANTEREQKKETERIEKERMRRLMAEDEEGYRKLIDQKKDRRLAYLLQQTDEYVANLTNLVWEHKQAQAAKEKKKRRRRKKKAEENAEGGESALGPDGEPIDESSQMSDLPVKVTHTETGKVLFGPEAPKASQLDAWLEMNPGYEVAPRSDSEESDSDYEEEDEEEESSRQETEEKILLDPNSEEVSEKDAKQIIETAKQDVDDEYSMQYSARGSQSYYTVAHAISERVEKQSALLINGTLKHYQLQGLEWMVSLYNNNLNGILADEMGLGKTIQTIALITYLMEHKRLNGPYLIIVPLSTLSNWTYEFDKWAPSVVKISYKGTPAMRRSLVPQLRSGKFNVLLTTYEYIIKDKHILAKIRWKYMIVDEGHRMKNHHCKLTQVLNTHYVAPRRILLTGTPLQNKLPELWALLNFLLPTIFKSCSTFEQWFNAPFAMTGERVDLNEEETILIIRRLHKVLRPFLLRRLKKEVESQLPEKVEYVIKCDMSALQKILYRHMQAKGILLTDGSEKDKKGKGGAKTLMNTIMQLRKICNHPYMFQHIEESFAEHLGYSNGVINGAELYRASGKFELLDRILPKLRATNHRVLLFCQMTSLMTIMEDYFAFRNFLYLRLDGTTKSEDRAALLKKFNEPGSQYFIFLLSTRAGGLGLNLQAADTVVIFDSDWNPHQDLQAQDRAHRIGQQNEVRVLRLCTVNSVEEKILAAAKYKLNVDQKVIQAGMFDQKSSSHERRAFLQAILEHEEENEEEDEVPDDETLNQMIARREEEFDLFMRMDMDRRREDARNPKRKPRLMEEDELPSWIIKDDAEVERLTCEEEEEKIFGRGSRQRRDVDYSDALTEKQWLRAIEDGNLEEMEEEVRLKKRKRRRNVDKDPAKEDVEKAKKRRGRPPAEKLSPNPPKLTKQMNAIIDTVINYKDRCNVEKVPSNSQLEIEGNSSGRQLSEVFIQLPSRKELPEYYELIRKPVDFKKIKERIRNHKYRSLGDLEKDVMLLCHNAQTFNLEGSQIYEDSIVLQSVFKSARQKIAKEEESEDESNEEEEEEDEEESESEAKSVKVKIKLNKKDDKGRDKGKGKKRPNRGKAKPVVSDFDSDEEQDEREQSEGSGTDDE

SMILES | IC50 [1] | BRM Max % Inhibition ([1]; Table 5) | IC50 [2] | BRG1 Max % Inhibition ([2]; Table 5) | BRM Max % Inhibition ([1]; Table 6) | BRG1 Max % Inhibition ([2]; Table 6)
CC(C)(O)c1cccc(C(=O)NCC(=O)Nc2nc(-c3ccccc3)cs2)c1 [Compound 61, 3-(2-hydroxypropan-2-yl)-N-(2-oxo-2-((4-phenylthiazol-2-yl)amino)ethyl)benzamide] | 1 to 10 µM | >80% | 1 to 10 µM | >50% |  | 
CSCC[C@H](NC(=O)c1ccc(S(=O)(=O)N(C)C)s1)C(=O)Nc1nc(-c2ccccc2)cs1 [Compound 62, 5-(dimethylsulfamoyl)-N-[(1S)-3-methylsulfanyl-1-[(4-phenylthiazol-2-yl)carbamoyl]propyl]thiophene-2-carboxamide] | 1 to 10 µM | >80% | 1 to 10 µM | >70% |  | 
CC(C)(C)c1cccc(C(=O)NCC(=O)Nc2nc(-c3ccccc3)cs2)c1 [Compound 65, 3-(tert-butyl)-N-(2-oxo-2-((4-phenylthiazol-2-yl)amino)ethyl)benzamide] | 1 to 10 µM | >70% | 1 to 10 µM | >30% |  | 
CSCC[C@H](NC(=O)c1ccc2[nH]cnc2c1)C(=O)Nc1nc(-c2ccccc2)cs1 [Compound 66, (S)—N-(4-(methylthio)-1-oxo-1-((4-phenylthiazol-2-yl)amino)butan-2-yl)-1H-benzo[d]imidazole-5-carboxamide] | > 10 µM | >70% | > 10 µM | >50% |  | 
COc1ccc(C(=O)N[C@@H](CCSC)C(=O)Nc2nc(-c3ccccc3)cs2)cc1 [Compound 67, 4-methoxy-N-[(1S)-3-methylsulfanyl-1-[(4-phenylthiazol-2-yl)carbamoyl]propyl]benzamide] | > 10 µM | >70% | > 10 µM | >70% |  | 
CSCC[C@H](NC(=O)c1ccc(C(F)(F)F)cc1)C(=O)Nc1nc(-c2ccccc2)cs1 [Compound 68] | > 10 µM |  | > 10 µM |  |  | 
CSCC[C@H](NC(=O)c1cc2ccccc2s1)C(=O)Nc1nc(-c2ccccc2)cs1 [Compound 71, (S)—N-(4-(methylthio)-1-oxo-1-((4-phenylthiazol-2-yl)amino)butan-2-yl)benzo[b]thiophene-2-carboxamide] | 1 to 10 µM | >60% | > 10 µM | >50% |  | 
CSCC[C@H](NC(=O)c1cccc(C(C)(C)C)c1)C(=O)Nc1nc(-c2ccccc2)cs1 [Compound 73, (S)-3-(tert-butyl)-N-(4-(methylthio)-1-oxo-1-((4-phenylthiazol-2-yl)amino)butan-2-yl)benzamide] | < 1 µM | >50% | 1 to 10 µM | >30% |  | 
CSCC[C@H](NC(=O)c1ccc(CNC(C)=O)cc1)C(=O)Nc1nc(-c2ccccc2)cs1 [Compound 74, 4-(acetamidomethyl)-N-[3-methylsulfanyl-1-[(4-phenylthiazol-2-yl)carbamoyl]propyl]benzamide] | > 10 µM | >50% | > 10 µM | >30% |  | 
CSCC[C@H](NC(=O)c1cccc(CN)c1)C(=O)Nc1nc(-c2ccccc2)cs1 [Compound 75] | > 10 µM | >50% | > 10 µM | >60% |  | 
CN(C)C(=O)c1cccc(C(=O)NCC(=O)Nc2nc(-c3ccccc3)cs2)c1 [Compound 78] | > 10 µM |  | > 10 µM |  |  | 
CSCC[C@H](NC(=O)c1cccc(CO)c1)C(=O)Nc1nc(-c2ccccc2)cs1 [Compound 84, 3-(hydroxymethyl)-N-[(1S)-3-methylsulfanyl-1-[(4-phenylthiazol-2-yl)carbamoyl]propyl]benzamide] | > 10 µM | >80% | > 10 µM | >80% |  | 
CSCC[C@H](NC(=O)c1ccc(S(C)(=O)=O)cc1)C(=O)Nc1nc(-c2ccccc2)cs1 [Compound 86] | > 10 µM | >70% | > 10 µM | >70% |  | 
CS(=O)(=O)c1cccc(C(=O)NCC(=O)Nc2nc(-c3ccc4cc[nH]c(=O)c4c3)cs2)c1 [Compound 88, 3-(methylsulfonyl)-N-(2-oxo-2-((4-(1-oxo-1,2-dihydroisoquinolin-7-yl)thiazol-2-yl)amino)ethyl)benzamide] | 0.1 to 1 µM |  | 1 to 10 µM |  | >95% | >95%
CS(=O)(=O)c1cccc(C(=O)NCC(=O)Nc2nc(-c3ccc4c(c3)OCCO4)cs2)c1 [Compound 92, N-(2-((4-(2,3-dihydrobenzo[b][1,4]dioxin-6-yl)thiazol-2-yl)amino)-2-oxoethyl)-3-(methylsulfonyl)benzamide] | 0.1 to 1 µM |  | 0.1 to 1 µM |  | >90% | >80%
CS(=O)(=O)NCc1cccc(-c2csc(NC(=O)CNC(=O)c3cccc(S(C)(=O)=O)c3)n2)c1 [Compound 94, N-(2-((4-(3-(methylsulfonamidomethyl)phenyl)thiazol-2-yl)amino)-2-oxoethyl)-3-(methylsulfonyl)benzamide] | 0.1 to 1 µM |  | 1 to 10 µM |  | >95% | >90%

The next lines start with the values.

IC50 [1] | BRM Max % Inhibition ([1]; Table 5) | IC50 [2] | BRG1 Max % Inhibition ([2]; Table 5) | BRM Max % Inhibition ([1]; Table 6) | BRG1 Max % Inhibition ([2]; Table 6) | SMILES
> 10 µM | >90% | > 10 µM | >80% |  |  | CSCC[C@H](NC(=O)c1ccc(CN(C)C)cc1)C(=O)Nc1nc(-c2ccccc2)cs1 [Compound 60, 4-[(dimethylamino)methyl]-N-[(1S)-3-methylsulfanyl-1-[(4-phenylthiazol-2-yl)carbamoyl]propyl]benzamide]
1 to 10 µM | >70% | 1 to 10 µM | >60% |  |  | CSCC[C@H](NC(=O)c1cc(S(=O)(=O)N(C)C)cs1)C(=O)Nc1nc(-c2ccccc2)cs1 [Compound 64, 4-(dimethylsulfamoyl)-N-[(1S)-3-methylsulfanyl-1-[(4-phenylthiazol-2-yl)carbamoyl]propyl]thiophene-2-carboxamide]
> 10 µM | >60% | > 10 µM | >60% |  |  | CSCC[C@H](NC(=O)c1ccccc1O)C(=O)Nc1nc(-c2ccccc2)cs1 [Compound 69, 2-hydroxy-N-[(1S)-3-methylsulfanyl-1-[(4-phenylthiazol-2-yl)carbamoyl]propyl]benzamide]
> 10 µM | >60% | > 10 µM | >50% |  |  | CNC(=O)c1ccc(C(=O)N[C@@H](CCSC)C(=O)Nc2nc(-c3ccccc3)cs2)cc1 [Compound 72, N4-methyl-N1-[(1S)-3-methylsulfanyl-1-[(4-phenylthiazol-2-yl)carbamoyl]propyl]terephthalamide]
> 10 µM | >30% | > 10 µM | >30% |  |  | CSCC[C@H](NC(=O)c1cccc(C(F)(F)F)c1)C(=O)Nc1nc(-c2ccccc2)cs1 [Compound 77, N-[(1S)-3-methylsulfanyl-1-[(4-phenylthiazol-2-yl)carbamoyl]propyl]-3-(trifluoromethyl)benzamide]
< 1 µM | >30% | 1 to 10 µM | >30% |  |  | O=C(CNC(=O)c1cc2c(s1)CCC2)Nc1nc(-c2ccccc2)cs1 [Compound 79, N-[2-oxo-2-[(4-phenylthiazol-2-yl)amino]ethyl]-5,6-dihydro-4H-cyclopenta[b]thiophene-2-carboxamide]
< 1 µM | >95% | < 1 µM | >95% |  |  | CNc1ccc(C(=O)N[C@@H](CCSC)C(=O)Nc2nc(-c3ccccc3)cs2)cc1 [Compound 81, 4-(methylamino)-N-[(1S)-3-methylsulfanyl-1-[(4-phenylthiazol-2-yl)carbamoyl]propyl]benzamide]
1 to 10 µM | >95% | 1 to 10 µM | >90% |  |  | CSCC[C@H](NC(=O)c1ccc(CO)cc1)C(=O)Nc1nc(-c2ccccc2)cs1 [Compound 85, 4-(hydroxymethyl)-N-[(1S)-3-methylsulfanyl-1-[(4-phenylthiazol-2-yl)carbamoyl]propyl]benzamide]
< 0.1 µM |  | 0.1 to 1 µM |  | >80% | >80% | CS(=O)(=O)c1cccc(C(=O)NCC(=O)Nc2nc(-c3cccc(-c4ccncc4)c3)cs2)c1 [Compound 89, 3-(methylsulfonyl)-N-(2-oxo-2-((4-(3-(pyridin-4-yl)phenyl)thiazol-2-yl)amino)ethyl)benzamide]
< 0.1 µM |  | < 0.1 µM |  | >70% | >50% | CS(=O)(=O)c1cccc(C(=O)NCC(=O)Nc2nc(-c3cccc(-c4ccncn4)c3)cs2)c1 [Compound 90, 3-(methylsulfonyl)-N-(2-oxo-2-((4-(3-(pyrimidin-4-yl)phenyl)thiazol-2-yl)amino)ethyl)benzamide]
0.1 to 1 µM |  | 1 to 10 µM |  | >95% | >90% | CS(=O)(=O)c1cccc(C(=O)NCC(=O)Nc2nc(-c3cccc(C4CCOCC4)c3)cs2)c1 [Compound 91, 3-(methylsulfonyl)-N-(2-oxo-2-((4-(3-(tetrahydro-2H-pyran-4-yl)phenyl)thiazol-2-yl)amino)ethyl)benzamide]
0.1 to 1 µM |  | 0.1 to 1 µM |  | >90% | >90% | Cn1cnc2ccc(-c3csc(NC(=O)CNC(=O)c4cccc(S(C)(=O)=O)c4)n3)cc2c1=O [Compound 93, N-(2-((4-(3-methyl-4-oxo-3,4-dihydroquinazolin-6-yl)thiazol-2-yl)amino)-2-oxoethyl)-3-(methylsulfonyl)benzamide]
< 0.1 µM |  | < 0.1 µM |  | >95% | >95% | O=C(CNC(=O)c1ccc2c(c1)CCN2)Nc1nc(-c2cccc(-c3ccncc3)c2)cs1 [Compound 95, N-(2-oxo-2-((4-(3-(pyridin-4-yl)phenyl)thiazol-2-yl)amino)ethyl)indoline-5-carboxamide]
